Measurements reported in ChEMBL document CHEMBL1201862, “PubChem BioAssay data set” (2004).
Active and inactive are the calls of the source.

Assays:
Bcl-2-related protein A1 [1] = target: T1, Bcl-2-related protein A1 (Mus musculus, UniProt Q07440); assay: Bfl-1 inhibitors blocking BH3 peptide binding, confirmation, biochemical, TR-FRET, mouse Bfl-1 (AID 621);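 note: TR-FRET binding of GST-Bfl-1 to FITC-labelled Bid peptide via terbium antibody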
T1 sequence (Q07440 whole entry): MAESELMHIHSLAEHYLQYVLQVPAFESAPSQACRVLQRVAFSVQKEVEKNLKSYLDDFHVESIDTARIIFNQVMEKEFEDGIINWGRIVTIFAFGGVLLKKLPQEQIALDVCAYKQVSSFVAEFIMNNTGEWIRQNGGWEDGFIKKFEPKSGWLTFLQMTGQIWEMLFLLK

[2] = target: Heat shock 70 kDa protein 1A (Homo sapiens, UniProt P0DMV8); assay: Hsp70 inhibitors, SAR follow-up, biochemical, fluorescence polarization (AID 1072)
Heat shock 70 kDa protein 1A, sequence (P0DMV8 whole entry): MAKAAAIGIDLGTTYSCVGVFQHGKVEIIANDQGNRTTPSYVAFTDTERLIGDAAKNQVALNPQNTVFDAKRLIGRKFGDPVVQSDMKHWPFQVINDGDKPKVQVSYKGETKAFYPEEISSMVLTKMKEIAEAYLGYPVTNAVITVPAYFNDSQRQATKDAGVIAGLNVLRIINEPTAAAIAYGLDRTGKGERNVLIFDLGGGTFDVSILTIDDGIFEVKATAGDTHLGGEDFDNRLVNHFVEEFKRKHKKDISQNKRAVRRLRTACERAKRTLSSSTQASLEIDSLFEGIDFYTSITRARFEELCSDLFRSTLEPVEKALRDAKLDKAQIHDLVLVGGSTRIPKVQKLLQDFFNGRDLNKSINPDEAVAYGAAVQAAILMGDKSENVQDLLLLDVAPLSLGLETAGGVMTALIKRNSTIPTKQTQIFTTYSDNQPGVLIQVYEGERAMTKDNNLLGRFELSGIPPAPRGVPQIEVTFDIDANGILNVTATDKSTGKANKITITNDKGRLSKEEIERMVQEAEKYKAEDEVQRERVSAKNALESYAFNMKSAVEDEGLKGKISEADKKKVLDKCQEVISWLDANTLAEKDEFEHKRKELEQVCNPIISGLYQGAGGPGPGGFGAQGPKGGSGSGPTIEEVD

Bcl-2-related protein A1 [3] = target: T1, Bcl-2-related protein A1; assay: Bfl-1 binding inhibitors, SAR follow-up, biochemical, fluorescence polarization (AID 1070)
[4] = target: Heat shock cognate 71 kDa protein (Homo sapiens, UniProt P11142); assay: In Vitro Hsc70 Dose Response Fluorescence Polarization Assay. [Related pubchem assays: 1072 ]
Heat shock cognate 71 kDa protein, sequence (P11142 whole entry): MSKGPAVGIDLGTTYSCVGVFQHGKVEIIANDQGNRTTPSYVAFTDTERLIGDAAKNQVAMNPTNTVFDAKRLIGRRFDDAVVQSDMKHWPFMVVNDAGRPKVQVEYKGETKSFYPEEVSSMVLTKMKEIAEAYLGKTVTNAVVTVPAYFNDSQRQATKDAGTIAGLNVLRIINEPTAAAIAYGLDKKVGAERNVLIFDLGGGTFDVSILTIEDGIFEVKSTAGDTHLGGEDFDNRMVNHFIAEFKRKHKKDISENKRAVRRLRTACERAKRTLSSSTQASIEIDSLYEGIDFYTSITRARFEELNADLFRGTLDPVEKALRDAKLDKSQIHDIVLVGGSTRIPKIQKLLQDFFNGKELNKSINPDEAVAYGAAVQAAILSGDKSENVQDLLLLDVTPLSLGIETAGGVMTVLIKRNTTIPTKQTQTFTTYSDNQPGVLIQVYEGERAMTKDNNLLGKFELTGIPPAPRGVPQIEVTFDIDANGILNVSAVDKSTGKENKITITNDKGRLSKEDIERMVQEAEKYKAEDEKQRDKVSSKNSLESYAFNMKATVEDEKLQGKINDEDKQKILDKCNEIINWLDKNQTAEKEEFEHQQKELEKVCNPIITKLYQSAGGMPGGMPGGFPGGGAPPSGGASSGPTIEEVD

[5] = target: Glyceraldehyde-3-phosphate dehydrogenase (Homo sapiens, UniProt P04406)
Glyceraldehyde-3-phosphate dehydrogenase, sequence (P04406 whole entry): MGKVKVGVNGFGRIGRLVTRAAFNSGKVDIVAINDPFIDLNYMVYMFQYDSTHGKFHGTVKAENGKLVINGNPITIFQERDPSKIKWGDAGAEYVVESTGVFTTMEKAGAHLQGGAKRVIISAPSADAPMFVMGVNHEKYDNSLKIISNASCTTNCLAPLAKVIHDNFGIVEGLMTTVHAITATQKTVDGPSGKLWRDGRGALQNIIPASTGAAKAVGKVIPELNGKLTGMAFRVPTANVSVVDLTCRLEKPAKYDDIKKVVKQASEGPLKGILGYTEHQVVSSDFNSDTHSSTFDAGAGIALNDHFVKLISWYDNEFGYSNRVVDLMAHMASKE

[6] = target: T2, Lysosomal acid glucosylceramidase (Homo sapiens, UniProt P04062); assay: Dose response cell-based high throughput screening assay to identify enhancers of beta-glucosidase activity. [Related pubchem assays: 784 ]; format: functional
T2 sequence (P04062 whole entry): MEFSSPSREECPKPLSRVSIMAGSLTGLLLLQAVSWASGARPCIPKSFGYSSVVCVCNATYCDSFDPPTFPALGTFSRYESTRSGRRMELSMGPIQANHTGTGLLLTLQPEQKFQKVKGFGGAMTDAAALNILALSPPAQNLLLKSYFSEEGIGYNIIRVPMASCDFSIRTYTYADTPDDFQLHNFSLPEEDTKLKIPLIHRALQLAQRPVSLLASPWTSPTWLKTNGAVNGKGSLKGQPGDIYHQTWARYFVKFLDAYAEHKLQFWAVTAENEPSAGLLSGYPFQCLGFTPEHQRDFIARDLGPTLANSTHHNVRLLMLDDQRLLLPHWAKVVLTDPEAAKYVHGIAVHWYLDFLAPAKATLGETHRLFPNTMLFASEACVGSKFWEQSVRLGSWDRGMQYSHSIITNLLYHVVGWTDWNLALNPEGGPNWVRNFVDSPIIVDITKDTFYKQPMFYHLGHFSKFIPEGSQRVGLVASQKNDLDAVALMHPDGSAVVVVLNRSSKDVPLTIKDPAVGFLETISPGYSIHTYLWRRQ

[7] = target: T3, Zinc finger protein mex-5 (Caenorhabditis elegans, UniProt Q9XUB2); assay: MEX-5/TCR-2 RNA interaction inhibitors, dose response, biochemical, C. elegans, fluorescence polarization (AID 1960)
T3 sequence (Q9XUB2 whole entry): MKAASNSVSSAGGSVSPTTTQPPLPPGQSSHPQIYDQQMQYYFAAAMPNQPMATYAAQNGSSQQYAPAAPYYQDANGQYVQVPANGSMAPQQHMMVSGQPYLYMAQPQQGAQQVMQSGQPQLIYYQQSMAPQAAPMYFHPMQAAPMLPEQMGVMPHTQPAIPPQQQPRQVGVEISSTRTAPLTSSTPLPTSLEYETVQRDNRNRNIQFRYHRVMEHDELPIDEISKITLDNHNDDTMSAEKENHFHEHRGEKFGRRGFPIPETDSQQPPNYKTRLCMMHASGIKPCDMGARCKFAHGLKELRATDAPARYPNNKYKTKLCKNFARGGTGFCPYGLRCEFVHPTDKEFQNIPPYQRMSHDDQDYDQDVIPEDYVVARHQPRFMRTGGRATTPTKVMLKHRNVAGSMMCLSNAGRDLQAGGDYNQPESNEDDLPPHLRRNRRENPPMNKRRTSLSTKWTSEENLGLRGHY

[8] = target: T4, RNA-binding protein pos-1 (Caenorhabditis elegans, UniProt G5EF15); assay: inhibitors of POS-1/mex-3 RNA binding, dose response, biochemical, fluorescence polarization (AID 1964);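 note: purified POS-1 fused to maltose binding protein made in E. coli; potency of compounds blocking POS-1 binding to fluorescent RNA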
T4 sequence (G5EF15 whole entry): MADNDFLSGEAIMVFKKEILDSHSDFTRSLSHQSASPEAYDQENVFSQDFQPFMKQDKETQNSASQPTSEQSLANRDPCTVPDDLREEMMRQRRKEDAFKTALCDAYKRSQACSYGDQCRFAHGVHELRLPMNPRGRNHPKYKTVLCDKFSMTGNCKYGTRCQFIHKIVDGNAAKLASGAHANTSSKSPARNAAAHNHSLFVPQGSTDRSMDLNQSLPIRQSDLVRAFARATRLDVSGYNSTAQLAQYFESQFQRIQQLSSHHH

Bcl-2-like protein 10 = target: T5, Bcl-2-like protein 10 (Homo sapiens, UniProt Q9HD36); assay: displacers of TR3 peptide from Bcl-B, primary screen, selectivity assay for Bfl-1 inhibitor project, biochemical, fluorescence polarization, FITC-TR3 peptide (AID 748);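 note: fluorescence polarization from a fluorescein-labelled TR3 peptide binding purified Bcl-B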
T5 sequence (Q9HD36 whole entry): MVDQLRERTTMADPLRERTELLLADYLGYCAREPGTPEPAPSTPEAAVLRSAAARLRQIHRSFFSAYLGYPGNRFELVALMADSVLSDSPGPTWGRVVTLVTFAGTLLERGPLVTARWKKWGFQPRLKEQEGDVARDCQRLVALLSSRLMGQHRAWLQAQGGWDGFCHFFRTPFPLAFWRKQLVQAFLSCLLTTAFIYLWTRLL

[9] = cytotoxicity toward NIH3T3 fibroblasts, dose response, counter-screen, cell-based, ATP luminescence, mouse fibroblasts (AID 2010); format: functional;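 note: cells exposed to compound for about 90 hours before reading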
[10] = inhibitors of intracellular T. cruzi replication, confirmation, NIH3T3 host cells, beta-gal luminescence (AID 2044); format: functional, cell-based;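 note: intracellular parasites grown in NIH/3T3 mouse fibroblasts as host cells; luminescent beta-galactosidase reporter signal from transgenic T. cruzi replicating inside host cells; inhibitors lower the luminescence signal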
cells [11] = assay: cells
[12] = microbe, parasite or virus in culture; format: functional; details: Mycobacterium tuberculosis
[13] = HepG2 cell cytotoxicity, dose response, cytotoxicity control for non-replicating M. tuberculosis project (AID 489018); format: functional; details: Mycobacterium tuberculosis
cells [14] = format: functional
[15] = THP-1 cell cytotoxicity, dose response, cytotoxicity control for non-replicating M. tuberculosis project (AID 489025); format: functional
[16] = HEp-2 cell cytotoxicity, dose response, cytotoxicity control for RSV inhibitor project, HTS (AID 2410); format: functional; details: human respiratory syncytial virus
Prothrombin = Prothrombin (Homo sapiens, UniProt P00734); assay: Thrombin 1536 HTS Dose Response Confirmation. [Related pubchem assays: 1046 (Thrombin 1536 HTS; hits were confirmed in this assay)]; format: functional
[17] = A cytotoxicity screen of small molecule inhibitors of the PhoP region in Salmonella typhi identified in the primary screen. [Related pubchem assays: 1850, 1864, 1985 ]; format: functional
[18] = ADAM10 protease inhibitors, dose response, selectivity assay for ADAM17 exosite inhibitor project, biochemical, FRET peptide substrate, recombinant human ADAM10 (AID 743259);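 note: ADAM10 enzyme cleaving a FRET peptide substrate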
[19] = target: T6, Disintegrin and metalloproteinase domain-containing protein 17 (Homo sapiens, UniProt P78536); assay: exosite inhibitors of ADAM17, dose response, biochemical (AID 743260)
T6 sequence (P78536 whole entry, the tested form may be a part): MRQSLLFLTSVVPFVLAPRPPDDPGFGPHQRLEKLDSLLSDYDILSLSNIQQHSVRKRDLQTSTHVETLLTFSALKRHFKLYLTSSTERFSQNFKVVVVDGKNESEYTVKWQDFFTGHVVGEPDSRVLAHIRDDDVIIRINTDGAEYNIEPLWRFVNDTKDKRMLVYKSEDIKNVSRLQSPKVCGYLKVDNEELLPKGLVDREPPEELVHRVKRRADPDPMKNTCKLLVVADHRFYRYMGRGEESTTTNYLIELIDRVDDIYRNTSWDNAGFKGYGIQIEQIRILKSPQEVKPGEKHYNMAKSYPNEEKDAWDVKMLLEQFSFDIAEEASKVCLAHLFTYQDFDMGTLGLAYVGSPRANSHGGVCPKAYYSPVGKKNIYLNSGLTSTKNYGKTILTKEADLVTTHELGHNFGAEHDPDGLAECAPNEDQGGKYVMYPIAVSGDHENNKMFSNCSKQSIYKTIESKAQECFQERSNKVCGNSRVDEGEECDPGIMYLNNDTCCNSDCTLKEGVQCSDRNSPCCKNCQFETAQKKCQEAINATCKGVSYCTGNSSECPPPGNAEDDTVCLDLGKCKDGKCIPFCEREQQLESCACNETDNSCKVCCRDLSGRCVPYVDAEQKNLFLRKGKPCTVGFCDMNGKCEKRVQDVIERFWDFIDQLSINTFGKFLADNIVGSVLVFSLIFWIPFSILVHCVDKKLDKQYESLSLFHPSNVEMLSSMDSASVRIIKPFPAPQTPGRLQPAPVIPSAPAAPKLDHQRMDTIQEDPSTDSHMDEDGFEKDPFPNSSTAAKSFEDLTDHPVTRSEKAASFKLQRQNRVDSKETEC

Cytochrome P450 3A4 = Cytochrome P450 3A4 (Homo sapiens, UniProt P08684); details: Potency;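 note: confirmatory qHTS run detecting inhibitors and substrates of CYP3A4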
Cytochrome P450 3A4, sequence (P08684 whole entry): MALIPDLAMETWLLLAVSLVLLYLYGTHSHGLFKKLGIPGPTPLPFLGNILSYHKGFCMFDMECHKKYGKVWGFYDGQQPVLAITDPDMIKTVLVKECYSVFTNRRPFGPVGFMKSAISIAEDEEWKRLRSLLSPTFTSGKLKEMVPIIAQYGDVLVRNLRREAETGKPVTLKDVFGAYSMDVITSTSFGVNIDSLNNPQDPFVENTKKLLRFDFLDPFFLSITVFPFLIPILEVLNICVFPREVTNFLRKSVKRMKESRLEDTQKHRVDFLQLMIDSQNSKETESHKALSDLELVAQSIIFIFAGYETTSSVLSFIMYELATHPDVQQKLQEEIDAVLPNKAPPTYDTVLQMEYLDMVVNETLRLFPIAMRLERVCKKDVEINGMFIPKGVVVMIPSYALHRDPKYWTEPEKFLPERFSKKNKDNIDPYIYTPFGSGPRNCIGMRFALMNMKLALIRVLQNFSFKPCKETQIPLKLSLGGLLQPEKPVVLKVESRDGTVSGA

[20] = target: T7, Rac GTPase-activating protein 1 (Homo sapiens, UniProt Q9H0H5); assay: MgcRacGAP GTPase-activating activity inhibitors, confirmation, biochemical, ADP Hunter fluorescence, primary and confirmatory (AID 624330); format: functional
T7 sequence (Q9H0H5 whole entry): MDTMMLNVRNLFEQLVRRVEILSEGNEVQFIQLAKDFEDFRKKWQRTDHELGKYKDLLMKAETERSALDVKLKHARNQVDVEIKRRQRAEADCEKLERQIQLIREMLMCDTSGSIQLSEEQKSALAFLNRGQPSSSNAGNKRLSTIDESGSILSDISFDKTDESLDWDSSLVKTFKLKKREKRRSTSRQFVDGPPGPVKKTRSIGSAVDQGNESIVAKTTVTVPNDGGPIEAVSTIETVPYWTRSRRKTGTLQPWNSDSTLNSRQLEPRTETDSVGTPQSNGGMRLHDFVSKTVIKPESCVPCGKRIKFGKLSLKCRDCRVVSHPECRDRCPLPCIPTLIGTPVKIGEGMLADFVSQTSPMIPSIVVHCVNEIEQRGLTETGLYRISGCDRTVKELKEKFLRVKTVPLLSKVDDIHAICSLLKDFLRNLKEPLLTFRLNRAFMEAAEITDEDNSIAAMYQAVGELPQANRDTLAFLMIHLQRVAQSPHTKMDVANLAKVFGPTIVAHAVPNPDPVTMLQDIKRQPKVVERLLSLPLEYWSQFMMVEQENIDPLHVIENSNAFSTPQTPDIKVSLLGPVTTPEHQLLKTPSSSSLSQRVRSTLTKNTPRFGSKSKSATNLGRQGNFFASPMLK

[21] = target: T6, Disintegrin and metalloproteinase domain-containing protein 17; assay: ADAM17 protease inhibitors, dose response, counter-screen for ADAM10 exosite inhibitor project, biochemical, quenched FRET substrate (AID 743253)

For O=C1C(Cl)=C(N2CCN(CCOCCO)CC2)C(=O)N1c1ccc(Cl)c(Cl)c1, the IC50 (Bcl-2-related protein A1 [1]) was 0.42 µM (active), the IC50 [2] was > 100 µM (not active) and the IC50 (Bcl-2-related protein A1 [3]) was 0.47 µM (active). The IC50 [4] was > 100 µM (not active) and the IC50 [5] was > 100 µM (not active).
In the case of Cc1cc(NS(=O)(=O)c2ccc(NC(=O)CCN3C(=O)c4ccccc4C3=O)cc2)no1, the EC50 [6] is reported as > 50 µM (not active).
With COc1ccc(S(=O)(=O)N(CC(=O)NCC2CCCO2)c2ccccc2)cc1OC (configuration not stated) the EC50 [6] was > 50 µM (not active).
For N=c1c(C(=O)NCC2CCCO2)cc2c(=O)n3ccccc3nc2n1Cc1cccnc1 (configuration not stated), the EC50 [7] was 12.2 µM (active), the EC50 [8] was 17.1 µM (active) and the IC50 (Bcl-2-like protein 10) was > 25 µM (inactive).
For CCCCN(C)CCNC(=O)c1nn(-c2ccc(OC)cc2)c(=O)c2c1c1ccccc1n2C, the EC50 [9] was > 60 µM (not active), the EC50 [10] was < 0.1 µM (active) and the EC50 (cells [11]) was 0.44 µM (active).
In the case of C=CCNCC(=O)N1N=C(c2ccc3ccccc3c2)CC1c1ccc(OC)cc1 (configuration not stated), the CC50 [12] is reported as 25.5 µM (active), the CC50 [13] is reported as > 20 µM (active) and the IC50 (cells [14]) is reported as 18.1 µM (active). For the same molecule, the CC50 [15] was 23.5 µM (active) and the CC50 [16] was 14.9 µM (active).
For COc1ccc(NC(=S)Nc2ccc3cn[nH]c3c2)cc1, the IC50 (Prothrombin) was 5.6 µM (active).
With CC(=O)N(CCC1(c2ccc(C)cc2)CCOC(C(C)C)C1)Cc1ccco1 (configuration not stated) the EC50 [17] was > 50 µM (active).
In the case of Cc1cccc(Nc2nnc(SCC(=O)c3ccc(Br)s3)s2)c1C, the IC50 [18] is reported as > 69.5 µM (inactive) and the IC50 [19] is reported as > 69.5 µM (inactive).
In the case of C=CCNS(=O)(=O)c1nc(C)c(Cl)c(C)c1C#N, the IC50 (Bcl-2-like protein 10) is reported as > 100 µM (inactive).
In the case of Oc1cccc(Nc2ccccc2)c1, the AC50 (Cytochrome P450 3A4) is reported as 15.8 µM (inconclusive) and the IC50 [20] is reported as 62.6 µM (active).
With CC(C)(C)OC(=O)NCc1ccc(CNC(=O)c2nc[nH]c2C(=O)N[C@@H](Cc2ccccc2)C(=O)OC(C)(C)C)cc1 the IC50 [21] was > 69.5 µM (inactive).
For CCOc1ccccc1-n1c(SCC(N)=O)nnc1-c1ccc(O)cc1, the EC50 [6] was > 50 µM (not active).
